{
  "source": "patent US10080720B2",
  "about": "“Pharmaceutical composition containing docetaxel” (GAINIA (SHANGHAI) PATENT TECHNOLOGY LTD., priority 2014, dated 2018)",
  "origin": "cited, not measured here",
  "data": [
    {"smiles": "CC(=O)O[C@@]12CO[C@@H]1C[C@H](O)[C@@]1(C)C(=O)[C@H](O)C3=C(C)[C@@H](OC(=O)[C@H](O)[C@@H](NC(=O)OC(C)(C)C)c4ccccc4)C[C@@](O)([C@@H](OC(=O)c4ccccc4)[C@H]21)C3(C)C", "note": "[docetaxel]", "values": [
      {"measurement": "solubility of docetaxel in water", "value": "6 to 7", "unit": "µg/mL"}
    ]}
  ]
}
